In the supplement of paper PMC13380429:

Legend:
Details in all cases: 72 h
Calu-3 [1] = experiment: relative viability EC50 (midpoint between 100% and the lowest measured viability); higher = less toxic
Caco-2 [2] = experiment: as above
Vero E6 [3] = experiment: as above
HepG2 [4] = experiment: as above
U2OS [5] = experiment: as above
Calu-3 [6] = experiment: cell viability relative to DMSO; higher = less toxic
Caco-2 [7] = experiment: as above
Vero E6 [8] = experiment: as above
HepG2 [9] = experiment: as above
U2OS [10] = experiment: as above
Calu-3 [11] = experiment: drug sensitivity score (DSS) for viability; higher = more toxic; extreme values may be limits of the assay
Caco-2 [12] = experiment: as above
Vero E6 [13] = experiment: as above
HepG2 [14] = experiment: as above
U2OS [15] = experiment: as above

Structure (SMILES)	relative viability EC50 (Calu-3 [1]) [µM]	relative viability EC50 (Caco-2 [2]) [µM]	relative viability EC50 (Vero E6 [3]) [µM]	relative viability EC50 (HepG2 [4]) [µM]	relative viability EC50 (U2OS [5]) [µM]	cell viability (Calu-3 [6]; 1 nM) [%]	cell viability (Calu-3 [6]; 10 nM) [%]	cell viability (Calu-3 [6]; 100 nM) [%]	cell viability (Calu-3 [6]; 1000 nM) [%]	cell viability (Calu-3 [6]; 10000 nM) [%]	cell viability (Caco-2 [7]; 1 nM) [%]	cell viability (Caco-2 [7]; 10 nM) [%]	cell viability (Caco-2 [7]; 100 nM) [%]	cell viability (Caco-2 [7]; 1000 nM) [%]	cell viability (Caco-2 [7]; 10000 nM) [%]	cell viability (Vero E6 [8]; 1 nM) [%]	cell viability (Vero E6 [8]; 10 nM) [%]	cell viability (Vero E6 [8]; 100 nM) [%]	cell viability (Vero E6 [8]; 1000 nM) [%]	cell viability (Vero E6 [8]; 10000 nM) [%]	cell viability (HepG2 [9]; 1 nM) [%]	cell viability (HepG2 [9]; 10 nM) [%]	cell viability (HepG2 [9]; 100 nM) [%]	cell viability (HepG2 [9]; 1000 nM) [%]	cell viability (HepG2 [9]; 10000 nM) [%]	cell viability (U2OS [10]; 1 nM) [%]	cell viability (U2OS [10]; 10 nM) [%]	cell viability (U2OS [10]; 100 nM) [%]	cell viability (U2OS [10]; 1000 nM) [%]	cell viability (U2OS [10]; 10000 nM) [%]	drug sensitivity score (Calu-3 [11])	drug sensitivity score (Caco-2 [12])	drug sensitivity score (Vero E6 [13])	drug sensitivity score (HepG2 [14])	drug sensitivity score (U2OS [15])
CC(C)c1ccc(C(=O)N=C(N)N)cc1S(C)(=O)=O [cariporide]	> 10	> 10	> 10	> 10	> 10	102	96.7	93.6	96.3	106	109	107	102	89.7	107	102	101	106	108	92.3	102	84.4	89.7	98	95.6	100	98.2	100	96.1	97	0	0	0	0	0
NCCC(=O)N[C@@H](Cc1c[nH]cn1)C(=O)O [carnosine]	3.08	2.08	2.74	3.22	3.07	95	93.4	104	99.4	48.6	99.5	97.8	92.3	88.6	15.4	94.3	95.3	95	95.5	17.9	111	101	97	101	12	96	97.2	92.3	99.1	28.7	2.8	6.6	5.2	4.8	4.1
NC(=O)CN1Cc2ccccc2OC1=O [caroxazone]	> 10	> 10	> 10	> 10	> 10	103	93.2	93.7	105	101	109	102	101	96	104	99.5	99.8	101	96.9	96.4	101	94.6	101	93.1	100	100	99	101	95.3	102	0	0	0	0	0
